Assay results from patent publication US11957759B1, “Rapidly accelerated fibrosarcoma (RAF) degrading compounds and associated methods of use” (Arvinas Operations, Inc., priority 2022, dated 2024).

Columns and labels:
B-RAF V600E = molecular target: T1, B-RAF V600E (Homo sapiens, UniProt P15056, V600E); assay: Target protein degradation, assay A: T-Rex 293 cells, HA-B-RAF_V600E, 96 well format; format: cell-based; conditions: T-Rex 293 HA-B-RAF_V600E cells, 24 hours, Examples 1-82
T1 construct: expressed in transfected cells; host or cells: T-Rex 293 cells (Invitrogen #R71007)
Description: A. T-Rex 293 Cells (96 well format)
T-Rex 293 cells were purchased from Invitrogen (#R71007), and stably transfected with a pcDNA4/TO_HA-B-RAF_V600E construct, using 400 ug Zeocin for selection. V600e cells are plated in ulbecco's Modified Eagle Medium (DMEM; Gibco #11965118) containing 10% fetal bovine serum (FBS; Gibco #16000044) and 1 ng/mL doxycycline (Selleckchem #4163) at a density of 5,000 cells/well in 50 μl on poly-D-lysine (PDL) coated, black clear bottom 96-well plates (Corning #354640) and incubated for 24 hours at 37° C. with 5% CO2. The following day 50 ul of tested compound was added at 2× concentration in DMEM with a final concentration ranging from 1 μM to 0.1 nM in 0.1% dimethylsulfoxide (DMSO), and incubated for 24 hours at 37° C. with 5% CO2. At the end of the experimental treatment, the media was flicked off and cells washed once with phosphate-buffered saline (PBS)++(PBS with CaCl and MgCl) and gently replacing with 200 μl PBS++ per well. The PBS++ was removed and 50 uL 4% paraformaldehyde (PFA; EMS #15710) in PBS++ was added, and incubate at room temperature for 15 minutes. Cells were washed once with PBS++ and 50 uL 0.1% Triton X-100 (Fisher #BP151-500) in PBS++ was added. Plate was incubate for 5 minutes at room temperature. Cells were was once with PBS++. Cells were blocked with 100 uL Licor blocking buffer (Licor #927-50000) for 1 hour at room temperature. Next, 50 uL of HA antibody (CST #3724) at 1:1000 in Licor blocking buffer was added, and the plate icubate overnight at 4° C. The plates were parafilmed to prevent evaporation. Plate was washed three times with 200 uL PBS++. Fifty microliters of HCS secondary antibody solution [1:1000 Hoechst (Invitrogen #H3570), 1:1000 phalloidin (Invitrogen #A22287) and 1:5000 Alexa fluor (Invitrogen #A11008)] was added and incubated for 1 hour. Plate was wash three times with 200 uL PBS++, and imaged on a high content reader (ImageXpress Micro XLS, Molecular Devices).
(§1) The concentration of an exemplary compound that leads to half maximal degradation (DC50) as well as the maximum degradation observed (Dmax, conventionally expressed as a percentage of control) is shown below in Table 2.

B-RAF G466V = molecular target: T2, B-RAF G466V (Homo sapiens, UniProt P15056, G466V); assay: Target protein degradation, assay B: T-Rex 293 cells, HA-B-RAF_G466V, 96 well format; format: cell-based; conditions: T-Rex 293 HA-B-RAF_G466V cells, 24 hours, Examples 1-82
T2 construct: expressed in transfected cells; host or cells: T-Rex 293 cells (Invitrogen #R71007)
Description: B. T-Rex 293 Cells (96 Well Format)
T-Rex 293 cells were purchased from Invitrogen (#R71007), and stably transfected with a pcDNA4/TO_HA-B-RAF_G466V construct, using 400 ug Zeocin for selection. G466V cells are plated in ulbecco's Modified Eagle Medium (DMEM; Gibco #11965118) containing 10% fetal bovine serum (FBS; Gibco #16000044) and 0.75 ng/mL doxycycline (Selleckchem #4163) at a density of 5,000 cells/well in 50 μl on poly-D-lysine (PDL) coated, black clear bottom 96-well plates (Corning #354640) and incubated for 24 hours at 37° C. with 5% CO2. The following day 50 ul of tested compound was added at 2× concentration in DMEM with a final concentration ranging from 30 nM to 3 pM in 0.1% dimethylsulfoxide (DMSO), and incubated for 24 hours at 37° C. with 5% CO2. At the end of the experimental treatment, the media was flicked off and cells washed once with phosphate-buffered saline (PBS)++(PBS with CaCl and MgCl) and gently replacing with 200 μl PBS++ per well. The PBS++ was removed and 50 uL 4% paraformaldehyde (PFA; EMS #15710) in PBS++ was added, and incubate at room temperature for 15 minutes. Cells were washed once with PBS++ and 50 uL 0.1% Triton X-100 (Fisher #BP151-500) in PBS++ was added. Plate was incubate for 5 minutes at room temperature. Cells were was once with PBS++. Cells were blocked with 100 uL Licor blocking buffer (Licor #927-50000) for 1 hour at room temperature. Next, 50 uL of HA antibody (CST #3724) at 1:1000 in Licor blocking buffer was added, and the plate icubate overnight at 4° C. The plates were parafilmed to prevent evaporation. Plate was washed three times with 200 uL PBS++. Fifty microliters of HCS secondary antibody solution [1:1000 Hoechst (Invitrogen #H3570), 1:1000 phalloidin (Invitrogen #A22287) and 1:5000 Alexa fluor (Invitrogen #A11008)] was added and incubated for 1 hour. Plate was wash three times with 200 uL PBS++, and imaged on a high content reader (ImageXpress Micro XLS, Molecular Devices).
as §1

T1 sequence (P15056 whole entry V600E): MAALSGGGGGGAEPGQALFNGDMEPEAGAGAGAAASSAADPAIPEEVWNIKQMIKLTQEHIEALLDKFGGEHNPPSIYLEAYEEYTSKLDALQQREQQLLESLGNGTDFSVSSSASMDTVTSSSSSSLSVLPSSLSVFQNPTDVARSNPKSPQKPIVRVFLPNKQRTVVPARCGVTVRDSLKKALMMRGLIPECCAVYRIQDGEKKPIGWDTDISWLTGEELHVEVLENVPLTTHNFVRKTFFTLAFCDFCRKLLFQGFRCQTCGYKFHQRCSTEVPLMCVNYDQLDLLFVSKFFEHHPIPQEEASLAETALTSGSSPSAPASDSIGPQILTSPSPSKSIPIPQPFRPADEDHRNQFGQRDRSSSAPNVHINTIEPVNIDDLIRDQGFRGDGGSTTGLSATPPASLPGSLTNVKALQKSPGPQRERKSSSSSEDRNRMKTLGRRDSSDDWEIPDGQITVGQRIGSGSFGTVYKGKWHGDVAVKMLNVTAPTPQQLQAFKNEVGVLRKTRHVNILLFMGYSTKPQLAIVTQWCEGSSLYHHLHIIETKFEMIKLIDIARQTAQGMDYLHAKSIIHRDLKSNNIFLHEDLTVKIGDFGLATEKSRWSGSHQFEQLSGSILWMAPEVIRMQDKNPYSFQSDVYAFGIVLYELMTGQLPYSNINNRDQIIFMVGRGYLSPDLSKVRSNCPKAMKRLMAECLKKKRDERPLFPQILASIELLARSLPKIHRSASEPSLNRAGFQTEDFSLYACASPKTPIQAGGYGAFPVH
T2 sequence (P15056 whole entry G466V): as the sequence (P15056 whole entry V600E) above, with G466V, E600V counted along it

Row | DC50 (B-RAF V600E) | Dmax (B-RAF V600E) | DC50 (B-RAF G466V) | Dmax (B-RAF G466V) | SMILES
1 | 5 to 50 nM | 35 to 70% | > 30 nM |  | N#Cc1c(NS(=O)(=O)N2CC[C@@H](F)C2)ccc(F)c1Oc1ccc2ncn(-c3ccc(N4CCN(CC5CCN(c6ccc(NC7CCC(=O)NC7=O)cc6F)CC5)CC4)cc3)c(=O)c2c1 (stereo partly drawn) [Example 11, (3R)-N-(2-cyano-3-{[3-(4-{4-[(1-{4-[(2,6-dioxopiperidin-3-yl)amino]-2-fluorophenyl}piperidin-4-yl)methyl]piperazin-1-yl}phenyl)-4-oxo-3,4-dihydroquinazolin-6-yl]oxy}-4-fluorophenyl)-3-fluoropyrrolidine-1-sulfonamide]
2 | 50 to 500 nM | 35 to 70% | > 30 nM |  | N#Cc1c(NS(=O)(=O)N2CC[C@@H](F)C2)ccc(F)c1Oc1ccc2ncn(-c3ccc(N4CCC(c5ccc6c(c5)C(=O)N(C5CCC(=O)NC5=O)C6)CC4)cc3)c(=O)c2c1 (stereo partly drawn) [Example 32, (3R)-N-(2-cyano-3-{[3-(4-{4-[2-(2,6-dioxopiperidin-3-yl)-3-oxo-2,3-dihydro-1H-isoindol-5-yl]piperidin-1-yl}phenyl)-4-oxo-3,4-dihydroquinazolin-6-yl]oxy}-4-fluorophenyl)-3-fluoropyrrolidine-1-sulfonamide]
3 | 50 to 500 nM | 35 to 70% | 1 to 10 nM | 35 to 70% | N#Cc1c(NS(=O)(=O)N2CC[C@@H](F)C2)ccc(F)c1Oc1ccc2ncn(-c3ccc(N4CCN(C(=O)CC5(O)CCN(c6ccc(C7CCC(=O)NC7=O)cc6F)CC5)CC4)nc3)c(=O)c2c1 (stereo partly drawn) [Example 69, (3R)-N-{2-cyano-3-[(3-{6-[4-(2-{1-[4-(2,6-dioxopiperidin-3-yl)-2-fluorophenyl]-4-hydroxypiperidin-4-yl}acetyl)piperazin-1-yl]pyridin-3-yl}-4-oxo-3,4-dihydroquinazolin-6-yl)oxy]-4-fluorophenyl}-3-fluoropyrrolidine-1-sulfonamide]
4 | 50 to 500 nM | 35 to 70% | 1 to 10 nM | ≤ 35% | N#Cc1c(NS(=O)(=O)N2CC[C@@H](F)C2)ccc(F)c1Oc1ccc2ncn(-c3ccc(N4CCN(CC5CN(c6ccc7c(c6)CN(C6CCC(=O)NC6=O)C7=O)C5)CC4)nc3)c(=O)c2c1 (stereo partly drawn) [Example 8, (3R)-N-{2-cyano-3-[(3-{6-[4-({1-[2-(2,6-dioxopiperidin-3-yl)-1-oxo-2,3-dihydro-1H-isoindol-5-yl]azetidin-3-yl}methyl)piperazin-1-yl]pyridin-3-yl}-4-oxo-3,4-dihydroquinazolin-6-yl)oxy]-4-fluorophenyl}-3-fluoropyrrolidine-1-sulfonamide]
5 | > 500 nM |  | ≤ 1 nM | ≤ 35% | N#Cc1c(NS(=O)(=O)N2CC[C@@H](F)C2)ccc(F)c1Oc1ccc2ncn(C3CCN(CC4CCN(c5ccc6c(c5)CN(C5CCC(=O)NC5=O)C6=O)CC4)CC3)c(=O)c2c1 (stereo partly drawn) [Example 6, (3R)-N-[2-cyano-3-({3-[1-({1-[2-(2,6-dioxopiperidin-3-yl)-1-oxo-2,3-dihydro-1H-isoindol-5-yl]piperidin-4-yl}methyl)piperidin-4-yl]-4-oxo-3,4-dihydroquinazolin-6-yl}oxy)-4-fluorophenyl]-3-fluoropyrrolidine-1-sulfonamide]
6 | 50 to 500 nM | 35 to 70% | > 30 nM |  | N#Cc1c(NS(=O)(=O)N2CC[C@@H](F)C2)ccc(F)c1Oc1ccc2ncn(-c3ccc(N4CCN(CC5CCN(c6ccc(C7CCC(=O)NC7=O)cc6F)CC5)CC4)nc3)c(=O)c2c1 (stereo partly drawn) [Example 14, (3R)-N-{2-cyano-3-[(3-{6-[4-({1[4-(2,6-dioxopiperidin-3-yl)-2-fluorophenyl]piperidin-4-yl}methyl)piperazin-1-yl]pyridin-3-yl}-4-oxo-3,4-dihydroquinazolin-6-yl)oxy]-4-fluorophenyl}-3-fluoropyrrolidine-1-sulfonamide]
7 | 50 to 500 nM | 35 to 70% | 1 to 10 nM | 35 to 70% | N#Cc1c(NS(=O)(=O)N2CC[C@@H](F)C2)ccc(F)c1Oc1ccc2ncn(-c3cnc(N4CCN(C(=O)CC5(O)CCN(c6ccc7c(c6)CN([C@H]6CCC(=O)NC6=O)C7=O)CC5)CC4)nc3)c(=O)c2c1 [Example 68, (3R)-N-(2-cyano-3-{[3-(2-{4-[2-(1-{2-[(3S)-2,6-dioxopiperidin-3-yl]-1-oxo-2,3-dihydro-1H-isoindol-5-yl}-4-hydroxypiperidin-4-yl)acetyl]piperazin-1-yl}pyrimidin-5-yl)-4-oxo-3,4-dihydroquinazolin-6-yl]oxy}-4-fluorophenyl)-3-fluoropyrrolidine-1-sulfonamide]
8 | 5 to 50 nM | 35 to 70% | ≤ 1 nM | 35 to 70% | N#Cc1c(NS(=O)(=O)N2CC[C@@H](F)C2)ccc(F)c1Oc1ccc2ncn(-c3ccc(N4CCN(CC5CCN(c6ccc7c(c6)CN(C6CCC(=O)NC6=O)C7=O)CC5)CC4)cc3)c(=O)c2c1 (stereo partly drawn) [Example 1, (3R)—N-[2-cyano-3-[3-[4-[4-[[1-[2-(2,6-dioxo-3-piperidyl)-1-oxo-isoindolin-5-yl]-4-piperidyl]methyl]piperazin-1-yl]phenyl]-4-oxo-quinazolin-6-yl]oxy-4-fluoro-phenyl]-3-fluoro-pyrrolidine-1-sulfonamide]
9 | 5 to 50 nM | 35 to 70% | 1 to 10 nM | 35 to 70% | N#Cc1c(NS(=O)(=O)N2CC[C@@H](F)C2)ccc(F)c1Oc1ccc2ncn(-c3ccc(N4CCN(C(=O)CC5(O)CCN(c6ccc7c(c6)CN([C@H]6CCC(=O)NC6=O)C7=O)CC5)CC4)cc3)c(=O)c2c1 [Example 4, (3R)—N-(2-cyano-3-{[3-(4-{4-[2-(1-{2-[(3S)-2,6-dioxopiperidin-3-yl]-1-oxo-2,3-dihydro-1H-isoindol-5-yl}-4-hydroxypiperidin-4-yl)acetyl]piperazin-1-yl}phenyl)-4-oxo-3,4-dihydroquinazolin-6-yl]oxy}-4-fluorophenyl)-3-fluoropyrrolidine-1-sulfonamide]
10 | > 500 nM |  | > 30 nM |  | N#Cc1c(NS(=O)(=O)N2CC[C@@H](F)C2)ccc(F)c1Oc1ccc2ncn(-c3ccc(N4CCN(CCN5CCN(c6ccc7c(c6)CN(C6CCC(=O)NC6=O)C7=O)CC5)CC4)cc3)c(=O)c2c1 (stereo partly drawn) [Example 10, (3R)-N-{2-cyano-3-[(3-(4-[4-(2-{4-[2-(2,6-dioxopiperidin-3-yl)-1-oxo-2,3-dihydro-1H-isoindol-5-yl]piperazin-1-yl}ethyl)piperazin-1-yl]phenyl}-4-oxo-3,4-dihydroquinazolin-6-yl)oxy]-4-fluorophenyl}-3-fluoropyrrolidine-1-sulfonamide]
